Peptide text beside a SMILES is read from it.
Assay: solubility in typical aqueous buffers
Type: physicochemical

SMILES: CC(C)C[C@H](NC(=O)[C@H](CO)NC(=O)[C@H](CC(N)=O)NC(=O)[C@@H](NC(=O)[C@H](CCCCN)NC(=O)[C@H](C)NC(=O)[C@@H](NC(=O)[C@H](CCCNC(=N)N)NC(=O)[C@H](CO)NC(=O)[C@H](CO)NC(=O)CN)C(C)C)[C@@H](C)O)C(=O)N[C@@H](CCCNC(=N)N)C(=O)N[C@@H](CCCNC(=N)N)C(=O)N[C@@H](CCCNC(=N)N)C(=O)N[C@@H](CCCCN)C(=O)O [Borealin^6–20, GSSRVAKTNSLRRRK] (H-GSSRVAKTNSLRRRK-OH)
- solubility (in words): soluble

Reference: paper PMC5711809, “Bayesian Analysis of MicroScale Thermophoresis Data to Quantify Affinity of Protein:Protein Interactions with Human Survivin” (Scientific Reports, 2017)
